Values of other authors in patent US20110212944A1, “2-OXO-1-PYRROLIDINE DERIVATIVES” (priority 2008, published 2011).

CCC[C@@H]1CC(=O)N([C@@H](CC)C(N)=O)C1 [brivaracetam, 2(S)-[2-oxo-4(R)-propylpyrrolidin-1-yl]butyramide]
time after drug administration within which adverse events subsided (after drug administration): ≤ 24 h | severity of treatment emergent adverse events (primarily CNS-related events (dizziness, somnolence, headache etc.)): mild to moderate
